Key:
[1] = test system: primary rat dorsal root ganglion (DRG) neurons; assay: Mitochondrial axonal transport live imaging under high glucose; assay type: cell-based; settings: 200 mM glucose and 500 nM compound, 24 h
Method: To investigate the effects of hyperglycemia on axonal transport live imaging was used to measure mitochondrial transport in primary rat dorsal root ganglion cells. Primary rat dorsal root ganglion (DRG) neurons (Lonza) were cultured for 5-7 days according to the vendor's protocol. The day before the imaging session cells were infected using CellLight Mitochondria-GFP (BacMam 2.0-based reagent, ThermoFisher Scientific) to fluorescently label mitochondria. […] Media in control wells was replaced with fresh media containing 25 mM glucose (control). Cells were allowed to incubate under these conditions for 24 h. […] Imaging was performed using Zeiss 3i system (Intelligent Imaging Innovations) in temperate controlled environment (37 C). Mitochondria were visualized using FITC filter. Time lapse images were acquired every 2 seconds over the course of 2 min and analyzed using Fiji (ImageJ). MtrackJ plugin was used to manually track mitochondrial movements and calculate parameters such as total distance traveled by each mitochondria. Total distance traveled by a population of mitochondria in each condition was plotted as a cumulative frequency plot. Data presented is a pool of 5 independent experiments.

[2] = test system: streptozotocin-induced diabetic rats (STZ rats); assay: Von Frey test of tactile allodynia in STZ diabetic rats; assay type: in vivo, rat; settings: for tactile allodynia / pain threshold (von Frey): STZ rats, oral dosing days 11-21
Method: Diabetes was induced in male SD rats by IV dosing of STZ (60 mg/kg) on […]. Blood glucose level (BGL) of above 300 mg/dl was observed on study day 3, following STZ dosing, which maintained throughout the study period.
Gabapentin (150 mg/kg) was used as a positive control. Tactile allodynia was measured on the indicated days during dosing and once on day 24, three days after dosing was stopped. Vehicle treated animals experienced low mechanical threshold throughout the treatment period (days 11-21) and also 3 days after the last dose (day 24).

[3] = Blood brain barrier penetration; settings: in vivo
[4] = test system: Dorsal root ganglion neurons (DRGNs); assay: Tubulin and histone acetylation by western blot of whole cell extracts; assay type: cell-based, rat; settings: 24 hours treatment
[5] = test system: Dorsal root ganglion neurons (DRGNs); assay: Acetyl-tubulin fluorescent ICC of axonal microtubules; assay type: cell-based, rat
Method: DRGNs were treated with Compound 2 on coverslips, fixed and stained with antibodies against acetyl-tubulin and total tubulin (fluorescent ICC) to visualize and quantitate tubulin acetylation in axonal microtubules. […] Acetyl-tubulin signal was normalized to total tubulin signal.

[6] = test system: Rats; assay: Tail Flick test; assay type: in vivo, rat; settings: BID for 4 days or single dose 1 h before test
Method: A Tail Flick test was performed every hour in a time period of four hours after treatments.
Data are presented in FIG. 4 as the latency time in seconds until the animals flicked their tails in response to the heat source. Morphine and Gabapentin were used as positive controls.

[7] = target: HDAC1 (Homo sapiens (Human), UniProt Q13547); assay: HDAC enzyme assay (HDAC1); assay type: biochemical
[8] = target: HDAC3 (Homo sapiens (Human), UniProt O15379); assay: HDAC enzyme assay (HDAC3); assay type: biochemical
[9] = target: HDAC6 (Homo sapiens (Human), UniProt Q9UBN7); assay: HDAC enzyme assay (HDAC6); assay type: biochemical
[10] = target: HDAC2 (Homo sapiens (Human), UniProt Q92769); assay: HDAC enzyme assay (HDAC2); settings: read-out: HDAC2 IC50
[11] = test system: streptozotocin hyperglycemic rats, dorsal root ganglia and sciatic nerves; assay: Metabolomic study in diabetic neuropathic pain model; assay type: in vivo, rat; settings: 10 mg/kg twice per day, 11 days
Method: Hyperglycemia was induced in rats with an injection of streptozotocin (60 mg/kg). Ten days later neuropathic pain was confirmed using a von Frey filament test for tactile allodynia. In this test, filaments of increasing diameter were applied to the plantar surface of the rear paw and the force necessary to precipitate a paw withdrawal is determined by the smallest filament needed to invoke a response. […] In addition, three naïve rats and three rats that had tactile allodynia at day 10 were sacrificed and the dorsal root ganglia and sciatic nerves were dissected and frozen as control samples.
Dorsal root ganglia and sciatic nerves were sent to Human Metabolome Technologies for analysis of metabolic intermediates. Extracts from these samples were analyzed by capillary electrophoresis/mass spectrometry to measure the level of charged metabolites. In addition, sciatic nerve extracts were analyzed by liquid chromatography/mass spectrometry to measure the level of non-charged metabolites.

Sequence of HDAC1 (Q13547 whole entry): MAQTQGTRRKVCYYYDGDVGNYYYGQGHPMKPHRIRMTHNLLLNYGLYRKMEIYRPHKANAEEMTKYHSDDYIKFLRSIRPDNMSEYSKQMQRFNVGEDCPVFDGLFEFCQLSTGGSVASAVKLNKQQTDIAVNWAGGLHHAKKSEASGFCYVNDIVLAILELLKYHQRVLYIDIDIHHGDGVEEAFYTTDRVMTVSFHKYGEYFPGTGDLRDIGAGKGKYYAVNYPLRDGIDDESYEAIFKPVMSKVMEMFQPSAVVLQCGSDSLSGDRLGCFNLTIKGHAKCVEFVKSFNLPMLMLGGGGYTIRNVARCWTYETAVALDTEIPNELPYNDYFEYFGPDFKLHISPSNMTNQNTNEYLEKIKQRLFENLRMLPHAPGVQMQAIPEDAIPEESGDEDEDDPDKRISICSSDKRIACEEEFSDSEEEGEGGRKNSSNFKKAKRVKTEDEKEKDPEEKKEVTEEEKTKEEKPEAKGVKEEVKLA
Sequence of HDAC3 (O15379 whole entry): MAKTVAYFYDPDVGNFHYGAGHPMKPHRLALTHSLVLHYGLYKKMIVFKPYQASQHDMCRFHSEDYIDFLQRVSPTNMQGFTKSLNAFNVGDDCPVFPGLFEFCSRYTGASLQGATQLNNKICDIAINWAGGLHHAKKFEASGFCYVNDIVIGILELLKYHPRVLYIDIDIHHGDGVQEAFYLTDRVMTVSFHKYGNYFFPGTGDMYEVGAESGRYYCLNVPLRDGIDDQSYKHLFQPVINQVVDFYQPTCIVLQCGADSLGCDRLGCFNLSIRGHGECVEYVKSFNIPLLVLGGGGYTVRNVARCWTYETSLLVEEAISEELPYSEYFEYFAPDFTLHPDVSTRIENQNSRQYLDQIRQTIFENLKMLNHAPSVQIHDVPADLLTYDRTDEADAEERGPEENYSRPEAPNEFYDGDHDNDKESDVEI
Sequence of HDAC3 (Q9Y618 395-489 partner): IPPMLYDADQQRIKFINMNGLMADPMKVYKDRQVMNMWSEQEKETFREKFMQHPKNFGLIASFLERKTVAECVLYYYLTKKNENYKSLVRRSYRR
Sequence of HDAC6 (Q9UBN7 whole entry): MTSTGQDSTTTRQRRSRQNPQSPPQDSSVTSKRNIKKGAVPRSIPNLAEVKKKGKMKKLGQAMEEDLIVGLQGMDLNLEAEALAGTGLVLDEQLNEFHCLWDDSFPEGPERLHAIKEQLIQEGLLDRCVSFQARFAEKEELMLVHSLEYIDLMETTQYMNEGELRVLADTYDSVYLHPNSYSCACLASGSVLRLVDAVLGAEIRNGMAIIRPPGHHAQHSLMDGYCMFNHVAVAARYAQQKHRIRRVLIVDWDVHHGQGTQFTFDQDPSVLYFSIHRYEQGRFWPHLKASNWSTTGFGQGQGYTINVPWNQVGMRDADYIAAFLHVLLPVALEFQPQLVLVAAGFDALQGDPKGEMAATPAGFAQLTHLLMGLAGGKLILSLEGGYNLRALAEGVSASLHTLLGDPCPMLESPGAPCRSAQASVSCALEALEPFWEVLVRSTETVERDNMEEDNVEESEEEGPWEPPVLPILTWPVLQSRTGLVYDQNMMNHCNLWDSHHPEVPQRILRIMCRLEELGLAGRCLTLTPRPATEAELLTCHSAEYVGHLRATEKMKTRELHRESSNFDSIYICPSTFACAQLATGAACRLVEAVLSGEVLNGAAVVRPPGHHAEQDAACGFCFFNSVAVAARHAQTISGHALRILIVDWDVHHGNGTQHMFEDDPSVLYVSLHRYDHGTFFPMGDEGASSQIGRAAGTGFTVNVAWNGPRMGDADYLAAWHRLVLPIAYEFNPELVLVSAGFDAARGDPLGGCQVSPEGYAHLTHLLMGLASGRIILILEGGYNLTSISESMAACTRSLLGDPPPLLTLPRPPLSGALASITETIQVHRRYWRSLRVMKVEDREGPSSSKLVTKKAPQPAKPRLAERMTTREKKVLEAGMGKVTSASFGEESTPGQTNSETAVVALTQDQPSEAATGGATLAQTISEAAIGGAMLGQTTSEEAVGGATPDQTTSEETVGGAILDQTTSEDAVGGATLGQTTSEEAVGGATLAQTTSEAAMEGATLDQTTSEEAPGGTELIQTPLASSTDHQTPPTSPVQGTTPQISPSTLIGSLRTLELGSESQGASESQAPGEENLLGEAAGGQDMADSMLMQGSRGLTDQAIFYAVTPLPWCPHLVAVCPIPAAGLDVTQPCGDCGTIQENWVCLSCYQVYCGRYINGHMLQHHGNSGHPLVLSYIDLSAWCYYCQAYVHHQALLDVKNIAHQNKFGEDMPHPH
Sequence of HDAC2 (Q92769 whole entry): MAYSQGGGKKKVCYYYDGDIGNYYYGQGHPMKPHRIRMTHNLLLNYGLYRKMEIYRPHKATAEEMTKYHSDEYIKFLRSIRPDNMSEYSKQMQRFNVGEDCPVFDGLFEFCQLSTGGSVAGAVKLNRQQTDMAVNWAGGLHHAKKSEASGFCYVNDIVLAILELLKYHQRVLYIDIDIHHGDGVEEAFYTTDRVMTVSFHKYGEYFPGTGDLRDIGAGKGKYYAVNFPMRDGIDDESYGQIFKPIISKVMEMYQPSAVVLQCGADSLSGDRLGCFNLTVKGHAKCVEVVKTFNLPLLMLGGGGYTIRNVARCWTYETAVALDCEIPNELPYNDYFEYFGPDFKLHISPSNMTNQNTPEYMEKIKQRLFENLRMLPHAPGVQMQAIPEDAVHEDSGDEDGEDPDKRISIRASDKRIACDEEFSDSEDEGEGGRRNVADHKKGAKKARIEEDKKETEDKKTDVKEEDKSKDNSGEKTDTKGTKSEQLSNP

| IC50 [7] | IC50 [8] | IC50 [9] | IC50 [10] | SMILES | mitochondrial movement (total distance traveled) [1] | tactile allodynia / pain threshold (von Frey) [2] | blood brain barrier penetration [3] | histone acetylation (western blot) ([4]; at up to 1 uM) | tubulin acetylation (western blot) ([4]; whole cell extracts) | acetylation of axonal microtubules (acetyl-tubulin normalized to total tubulin) [5] | increase of latency time in Tail Flick test vs vehicle control [6] | persistence of effect on pain threshold after drug withdrawal ([2]; day 24, three days after dosing was stopped) | metabolic changes incl. acyl-carnitines (AC 16:2, AC 18:2) [11] |
| --- | --- | --- | --- | --- | --- | --- | --- | --- | --- | --- | --- | --- | --- |
| – | – | – | – | O=C(CCCCCCNC(=O)c1cnc(N(c2ccccc2)c2ccccc2)nc1)NO [Compound 2, 2-(diphenylamino)-N-(7-(hydroxyamino)-7-oxoheptyl)pyrimidine-5-carboxamide] | restores normal pattern of mitochondrial movement | reversed tactile allodynia in STZ rats in a dose dependent manner and restored the pain threshold in these rats to almost normal levels | does not penetrate the blood brain barrier very well | Minimal histone acetylation increase | induced an increase in tubulin acetylation in a dose-dependent matter | increases acetylation of axonal microtubules | not effective (except in the group that received Compound 2 at 30 mg/kg BID for 4 days) | – | – |
| 68 nM | 105 nM | 2 nM | 82 nM | COc1ccc(C(F)(F)F)cc1CNc1ncc(C(=O)NO)cn1 [Compound 3, N-hydroxy-2-((2-methoxy-5-(trifluoromethyl)benzyl)amino)pyrimidine-5-carboxamide] | – | reversed tactile allodynia in STZ rats in a dose dependent manner and restored the pain threshold in these rats to almost normal levels | – | – | – | – | – | – | – |
| – | – | – | – | O=C(NO)c1cnc(NC2(c3ccccc3)CC2)nc1 [Compound 1, N-hydroxy-2-((1-phenylcyclopropyl)amino)pyrimidine-5-carboxamide] | – | reversed tactile allodynia in STZ rats in a dose dependent manner and restored the pain threshold in these rats to almost normal levels | penetrates the blood brain barrier | – | – | – | not effective | persisted even after the drug was withdrawn | normalized many of the metabolic changes, including the changes in acyl-carnitines |
